# Experimental data: patent publication US8685455B2, “Oil-in-water emulsions containing lignan-class compounds and compositions containing the same” (Suntory Holdings Limited, priority 2005, dated 2014)
# Test: Solubilities of sesamin, episesamin and their mixture in various oils or fats
# Type: physicochemical
# Procedure: To prepare the lignan-class compound containing emulsion of the present invention, liquid in which a lignan-class compound is dissolved (oil phase) is first prepared. As already mentioned, a sesame oil or the like may be used as the liquid, alternatively, the liquid may be prepared by adding a powdered form of lignan-class compound to a solvent oil or fat, mixing the mixture, and fully dissolving the powdered form to the solvent while agitating the mixture while heating. The blending ratio between the lignan-class compound and the fat or oil varies with the type of the lignan-class compound and the fat, or oil that serves as a solvent and it can be set appropriately in consideration of this fact. The assignees of the subject application have discovered that two lignan-class compounds, sesamin and episesamin, and a mixture thereof had different solubilities in different fats or oils (see Table 1).
Structure (SMILES),Solubilities (%) in DG,Solubilities (%) in MCT-1,Solubilities (%) in MCT-2,Solubilities (%) in Olive oil,Solubilities (%) in Wheat germ oil
"c1cc2c(cc1[C@H]1OC[C@H]3[C@@H]1CO[C@@H]3c1ccc3c(c1)OCO3)OCO2 [Episesamin, episesamin]",1.0%,2.5%,2.5%,0.5%,0.75%
"c1cc2c(cc1[C@H]1OC[C@H]3[C@@H]1CO[C@@H]3c1ccc3c(c1)OCO3)OCO2 [Sesamin, sesamin]",1.25%,4.0%,2.0%,0.75%,0.75%
